Where “and” joins values, the source holds several entries; their conditions need not be identical. Equal values may be shown once. Read-outs that look alike come from different tables or passages of the source.
Legend:
[1] = cited from earlier work
[2] = Safety and tolerability of oral (Z)-Endoxifen in healthy female volunteers; format: in vivo, human
Description: Study assessments included taking the subjects medical history, including evaluation of any on-study adverse events and concomitant medication use; height and weight; physical examination; periodic vital signs (body temperature, heart rate, respiratory rate, blood pressure); periodic 12-lead ECGs. […] Specific assessments to evaluate treatment safety included the following: the frequency and type of adverse events, clinical laboratory testing, 12-lead ECGs and vital signs. A modified FACT-ES® scoring questionnaire was used to assess symptomatology.
Safety endpoints were summarized by dose cohort, with placebos pooled across cohorts. Treatment-emergent AEs were coded using the latest version of MedDRA by System Organ Class (SOC) and Preferred Term, classified from verbatim terms. The incidence and frequency of AEs, and SAEs, were summarized by cohort according to SOC and Preferred Terms, and by severity and relationship. The duration of AEs was determined and included in listings, along with the action taken and outcome. Vital signs, ECG and safety laboratory parameters were summarized at each scheduled time point using descriptive statistics. Post-dose assessments were compared with baseline measurements. The incidence of laboratory abnormalities was summarized. Physical examination findings were presented in listings.

[3] = Comparison of (Z)-endoxifen concentrations (oral) with published literature (Table 22); format: in vivo

- % Ratio of Css Study/Literature ([3]; oral dose 1 mg): 154%
- Study Result of Average Serum (Z)-Endoxifen Css ([3]; oral dose 1 mg): 19.1 ng/mL and 51.1 nM
- % Ratio of Css Study/Literature ([3]; oral dose 2 mg): 204%
- Study Result of Average Serum (Z)-Endoxifen Css ([3]; oral dose 2 mg): 38 ng/mL and 101.7 nM
- % Ratio of Css Study/Literature ([3]; oral dose 4 mg): 150%
- Study Result of Average Serum (Z)-Endoxifen Css ([3]; oral dose 4 mg): 85.1 ng/mL and 227.9 nM
SMILES: CC/C(=C(\c1ccc(O)cc1)c1ccc(OCCNC)cc1)c1ccccc1 [(Z)-Endoxifen, (Z)-4-(1-(4-(2-(methylamino)ethoxy)phenyl)-2-phenylbut-1-enyl) phenol]
- Published Literature Result of Average Plasma (Z)-Endoxifen Css ([1]; oral dose 1 mg): 12.4 ng/mL and 33.1 nM
- Published Literature Result of Average Plasma (Z)-Endoxifen Css ([1]; oral dose 2 mg): 18.6 ng/mL and 49.8 nM
- Published Literature Result of Average Plasma (Z)-Endoxifen Css ([1]; oral dose 4 mg): 56.8 ng/mL and 152.1 nM
- Published Literature Result of Average Plasma (Z)-Endoxifen Css ([1]; oral dose 8 mg): 96.8 ng/mL and 259.2 nM
- subjects with treatment related AEs of moderate severity ([2]; 5 of 18 subjects): 28%
- subjects with treatment-emergent AEs deemed related to study drug ([2]; 15 of 18 subjects, oral 1-4 mg): 83%
- number of treatment related AEs of moderate severity ([2]; 18 subjects): 6 AEs
- number of treatment-related AEs ([2]; 18 subjects, oral 1-4 mg): 41 AEs
- severity of AEs ([2]; all AEs mild (75 of 84) or moderate (9 of 84), incl. placebo): no AEs classified as severe
- adverse events reported only in subjects who received (Z)-Endoxifen ([2]; human, in vivo): Upper respiratory infection, hot flush, abdominal distension, dry mouth, and menstruation delayed
- safety by clinical laboratory tests, vital signs, ECG, FACT-ES versus placebo ([2]; human, in vivo): no clear differences in safety

From patent US12275684B2, “Methods for making and using endoxifen” (Atossa Therapeutics, Inc., priority 2017, dated 2025)
